Assay results as given in patent EP1336409B1 (priority 1995, dated 1997).

System: spinal pia-arachnoid membranes
Parameters: species or system Macaque nemestrina monkeys
Details: read-out: IC50, displacement of [125I]SNX-111 binding

Substance: [Nle^12] SNX-111 [SNX-194]
- IC50: 41 µM
